Data set [1] is described as follows: Formation of deacylated compounds by esterases in rat platelet enzyme solution (HPLC). The class given is in vitro ADME, rat (platelets). As to conditions: rat, platelet enzyme solution, 37° C., enzyme solution, read-out: conversion ratio to Formula 34b. As to the method: (§1) The test was performed to examine whether or not deacylated compounds would be formed due to esterases present in the enzyme solution when the compounds in the third embodiment according to the present invention were treated with the same enzyme solution as in Test Example 3.
(§2) The enzyme solution was prepared according to the same procedure as described in Test Example 1.
(§3) One ml of the above mentioned enzyme solution was diluted with 11 ml of a resuspension buffer. To an aliquot (300 μl) of this enzyme solution was added 3 μl of a 1.0×10^-3 M test compound solution in dimethyl sulfoxide. The mixture was incubated at 37° C. for an indicated time, then the reaction was ceased by the addition of 1 ml of acetonitrile. Twenty μl of the above mixture was subjected to reverse phase high-performance liquid chromatography equipped with a C-18 column to quantify the amount of deacylated products. As a control, a test using 300 μl of the resuspension buffer solution mentioned above instead of the enzyme solution was also performed.
(§4) Conditions of reverse phase high-performance liquid chromatography:
(§5) Column: Superspher RP-18(e) (purchased from Merck), 4.0 mm in diameter, 125 mm in length
(§6) Flow velocity: 1.0 ml/minute
(§7) Eluent: Acetonitrile containing 50 mM NaClO4 and 50 mM orthophosphate-water (55:45)
(§8) Column temperature: 30° C.
(§9) Calibration: Absorbance of 280 nm
(§10) The results of the test upon the compounds of Example 40 (Formula 43b) and Example 57 (Formula 74b) of the compounds according to the present invention will be shown. Since both the compounds of Example 40 (Formula 43b) and Example 57 (Formula 74b) are thought to be converted into the compound of Referential Example 8 (Formula 34b) through deacylation, the retention time of the compound of Referential Example 8 was checked strictly under the employed conditions with reverse phase high-performanceliquid chromatography mentioned above (retention time: 2.49 minutes) and a calibration curve of the compound was made using authentic sample of Referential Example 8.

Data set [2] deals with esterases present in the enzyme solution. The description is as above. The class given is in vitro ADME, rat (platelets). As to conditions: resuspension buffer instead of the enzyme solution. As to the method: as §1, §2, §3, §4, §5, §6, §7, §8, §9, §10
Data set [3] addresses T1, 5-lipoxygenase (Rattus norvegicus, UniProt P12527).
T1 construct: host or cells: RBL-1 (rat basophilic leukemia cells)
T1 sequence (P12527 1-673): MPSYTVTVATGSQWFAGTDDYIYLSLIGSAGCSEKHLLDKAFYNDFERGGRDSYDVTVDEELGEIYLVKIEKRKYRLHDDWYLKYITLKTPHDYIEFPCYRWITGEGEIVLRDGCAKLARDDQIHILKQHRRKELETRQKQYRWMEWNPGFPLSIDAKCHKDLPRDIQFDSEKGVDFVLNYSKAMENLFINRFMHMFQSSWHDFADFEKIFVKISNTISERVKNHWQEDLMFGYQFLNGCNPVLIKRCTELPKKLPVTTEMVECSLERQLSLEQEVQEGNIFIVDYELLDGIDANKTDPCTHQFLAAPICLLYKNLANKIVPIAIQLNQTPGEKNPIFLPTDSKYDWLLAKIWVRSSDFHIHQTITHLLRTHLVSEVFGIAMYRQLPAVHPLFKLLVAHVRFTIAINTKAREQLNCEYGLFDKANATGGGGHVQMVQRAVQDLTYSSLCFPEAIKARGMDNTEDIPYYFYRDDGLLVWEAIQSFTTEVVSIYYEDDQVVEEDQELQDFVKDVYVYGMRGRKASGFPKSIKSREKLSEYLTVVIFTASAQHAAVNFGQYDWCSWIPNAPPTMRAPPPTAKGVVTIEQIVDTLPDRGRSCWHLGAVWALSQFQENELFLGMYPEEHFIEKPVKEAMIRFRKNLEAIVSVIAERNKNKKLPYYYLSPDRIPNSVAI
As to the kind of experiment: 5-lipoxygenase inhibition assay (RBL-1 supernatant, arachidonic acid, HPLC of 5-HETE). It counts as biochemical, rat (basophilic leukemia cells RBL-1, ATCC CRL1378). As to the method:
Rat basophilic leukemia cells (RBL-1, ATCC CRL1378) were cultured in Dulbecco modified Eagle's medium containing 10% new-born bovine serum.
Cultured cells were collected and washed twice with a 50 mM Tris-buffered saline (containing 154 mM sodium chloride, pH: 7.4, hereinafter described as TBS). The cell suspension (4×10^7 cells/ml) was then sonicated and centrifuged at 10,000×g for 10 minutes.
The resultant supernatant was used to prepare an assay solution.
To an aliquot (15 μl) of the enzyme solution (40 mU/ml equivalent) was added 185 μl of TBS, 50 μl of a 2 mM adenosine triphosphate in TBS, 50 μl of a 12 mM calcium chloride in TBS, 1 μl of a 3 mM indomethacin in ethanol solution, 1 μl of an aqueous 300 mM reduced glutathione solution, and 3 μl of varied concentrated test compounds solution in ethanol. The resultant mixture was incubated at 37° C. for 5 minutes. Subsequently, 3 μl of a 2.5 mM arachidonic acid solution in ethanol was added to incubate the mixture for 2 minutes at 37° C. The reaction was ceased by the addition of 600 μl of methanol. After being centrifuged at 10,000×g for 5 minutes, 5-hydroxyeicosatetraenoic acid recovered in the supernatant was separated with a reverse phase high-performance liquid chromatography equipped with a C-18 column and measured the absorption of diene at 234 nm to quantify the activity of the enzyme.
Using the compounds of the present invention prepared in the same manner as in Examples 1-30, and Examples 33-36 as test samples and known baicalein (purchased from Wako Junyaku Kogyo) represented by the following formula 30 as a control: [drawing 34] the tests were performed for dose dependent inhibition to estimate IC50 values
It was prepared in the same method as in Test Example 2.
They were measured in the same method as in Test Example 2.

For data set [4], the system named is 12-lipoxygenase. As to the kind of experiment: 12-lipoxygenase inhibition assay (rat platelet supernatant, arachidonic acid, HPLC of 12-HETE). It counts as biochemical, Sprague Dawley male rat (platelets). To be noted: comparative tests by the inventors. The procedure: (§11) A Sprague Dawley male rat was anesthetized with ether and bled from abdominal aorta using a syringe filled with about one-tenth volume of 3.8% sodium citrate. Blood was centrifuged at 180×g for 15 minutes at room temperature to pellet sanguineous platelet blood plasma. The resultant supernatant was again centrifuged at 1800×g for 10 minutes at 4° C. The pelleted platelets were rinsed twice with a washing buffer (50 mM Tris-hydrochloric acid buffer containing 154 mM sodium chloride and 2 mM EDTA, pH: 7.4). The platelets were then suspended in one-twentieth volume of a resuspension buffer (50 mM Tris-hydrochloric acid buffer containing 154 mM sodium chloride and 5.5 mM glucose, pH: 7.4). The platelets were then sonicated at 4° C. and centrifuged at 100,000×g for 30 minutes to obtain a supernatant as a 12-lipoxygenase enzyme solution.
(§12) The enzyme solution described above was diluted with the resuspension buffer above mentioned to prepare an assay solution so as to include about 2 mU/ml of 12-lipoxygenase. To an aliquot (300 μl) of the assay solution was added 1 μl of a 3 mM indomethacin-ethanol solution, 1 μl of an aqueous 300 mM reduced-glutathione solution, and 3 μl of varied concentrated test compounds solution in ethanol. The resultant mixture was incubated at 37° C. for 5 minutes. Subsequently, 3 μl of a 2.5 mM arachidonic acid solution in ethanol was added to incubate with for another 5 minutes at 37° C., then the reaction was ceased by the addition of 600 μl of methanol. After being centrifuged at 10,000×g for 5 minutes, 12-hydroxyeicosatetraenoic acid recovered in the supernatant was separated with a reverse phase high-performance liquid chromatography equipped with a C-18 column and measured the absorption of diene at 234 nm to quantify the activity of 12-lipoxygenase.
(§13) As test compounds were used the compounds of the present invention prepared in the same methods as in Example 4, Example 5 and Example 8 and the compounds prepared in the same methods as in Comparative Examples 1-5, and as a control was used esculetin (purchased from Tokyo Kasei), a known compound represented by the following formula: [drawing 33] and the test was conducted at varied concentrations.
(§14) The enzyme solution was prepared according to the same manner as in Test Example 1.
(§15) The inhibition assay was performed according to the same method as described in Test Example 1 except that the same samples used in measurement of the 5-lipoxygensase activity were used to estimate IC50 values. […]
(§16) They were measured in the same method as in Test Example 1.

Data set [5] has as its target T2, 12-lipoxygenase (Rattus norvegicus, UniProt F1LQ70).
T2 construct: The platelets were then sonicated at 4° C. and centrifuged at 100,000×g for 30 minutes to obtain a supernatant as a 12-lipoxygenase enzyme solution; from tissue; host or cells: Sprague Dawley rat platelets (from aortic blood), sonicated, 100,000 x g supernatant
T2 sequence (F1LQ70 1-663): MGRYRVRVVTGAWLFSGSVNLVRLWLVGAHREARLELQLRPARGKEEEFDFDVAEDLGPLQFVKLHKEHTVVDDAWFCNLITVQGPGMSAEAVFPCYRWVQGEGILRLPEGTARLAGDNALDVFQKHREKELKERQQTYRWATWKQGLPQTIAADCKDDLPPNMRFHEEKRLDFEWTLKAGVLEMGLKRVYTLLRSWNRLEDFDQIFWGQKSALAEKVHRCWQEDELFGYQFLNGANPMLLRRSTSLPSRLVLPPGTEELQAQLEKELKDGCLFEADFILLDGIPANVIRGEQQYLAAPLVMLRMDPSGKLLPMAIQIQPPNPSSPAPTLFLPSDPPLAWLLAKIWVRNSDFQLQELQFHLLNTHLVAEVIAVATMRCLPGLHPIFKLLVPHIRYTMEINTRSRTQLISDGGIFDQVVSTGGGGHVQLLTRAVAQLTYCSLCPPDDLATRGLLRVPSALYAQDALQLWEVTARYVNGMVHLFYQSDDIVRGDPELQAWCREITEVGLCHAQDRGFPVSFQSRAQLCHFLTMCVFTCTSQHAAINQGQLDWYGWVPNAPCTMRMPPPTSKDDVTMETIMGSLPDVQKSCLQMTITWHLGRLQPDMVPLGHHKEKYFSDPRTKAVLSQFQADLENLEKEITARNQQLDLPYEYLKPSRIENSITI
The data set is described as above. It counts as biochemical, Sprague Dawley male rat (platelets). The procedure: as §11, §12, §13, §14, §15, §16

For data set [6], the system named is 12-lipoxygenase. As to conditions: known compound used as lead; cited from earlier work.
Setting [7] is: Test Example 1, Table 1 and text, read-out: 12-lipoxygenase IC50 value.
[8] abbreviates: Test Example 2, Table 2, read-out: IC50 value of 5-lipoxygenase.
[9] abbreviates: Test Example 2, Table 2, read-out: IC50 value of 12-lipoxygenase.
Setting [10] is: Test Example 3, Table 11, value belongs to the deacylated compound, read-out: 12-lipoxygenase inhibiting activities of deacylated compounds (IC50 values).

Structures are written as SMILES. Read-outs that look alike come from different tables or passages of the source.

On to `CCC(=O)Oc1cc2cc(-c3cccc(Cl)c3)c(=O)oc2cc1OC(=O)CC` [Example 57], for which the metabolised at 0.5 h, 10 µM in data set [1] (reaction time 30 minute) worked out at 42.4%. In addition, the metabolised at 1 h, 10 µM in data set [1] (reaction time 60 minute) is 60.4%. In addition, the “formation of deacylated compound in buffer control” value in data set [2] is recorded as “no deacylated compound (Formula 34b) was formed”.
Consider `O=c1cc(-c2ccccc2)c2ccc(O)c(O)c2o1` [Comp. Example 3, reference compound], for which the 50% inhibitory concentration (IC50) (usually the concentration needed to halve the response being measured) in data set [3] (text of Test Example 1, not shown in Table 1, read-out: 5-lipoxygenase inhibitory activity IC50 value) was 640 nM; in data set [5] (setting [7]) it was 260 nM. Besides, the “selectivity between 12-lipoxygenase and 5-lipoxygenase (in words)” value in data set [4] is given as “no selectivity was found”.
For `O=c1cc(-c2ccccc2)oc2cc(O)c(O)c(O)c12` [Baicalein, 5,6,7-trihydroxyflavone, reference compound], the “12-lipoxygenase inhibitory activity (in words)” value in data set [6] is on record as “relatively strong 12-lipoxygenase inhibitory activity”. Further, in data set [6], the “selectivity (in words)” value is recorded as “relatively high selectivity”. Also, the IC50 was determined as 2400 nM in data set [3]; 2400 nM in data set [3] (read-out: IC50 value of 5-lipoxygenase, Test Example 2, Table 2); 42 nM in data set [5] (12-Lipoxygenase inhibiting activity IC50 value, Test Example 5, Table 22); 42 nM in data set [5] (12-lipoxygenase inhibiting activities of deacylated compounds (IC50 values), Test Example 3, Table 11, value belongs to the deacylated compound); 42 nM in data set [5] (IC50 value of 12-lipoxygenase, Test Example 2, Table 2); 42 nM in data set [5] (read-out: 12-Lipoxygenase inhibiting activity IC50 value, Test Example 5, Table 22).
With `Cc1ccc(-c2cc3cc(O)c(O)cc3oc2=O)o1` [Example 36, 3-(5-methylfuran-2-yl)-6,7-dihydroxycoumarin], the IC50 in data set [3] (setting [8]) was determined as 250 nM; in data set [5] (setting [9]) it was 14 nM.
In the case of `O=c1oc2c(O)c(O)ccc2cc1-c1csc2ccccc12` [Example 63], the IC50 in data set [3] (Test Example 5, Table 22, read-out: 5-Lipoxygenase inhibiting activity IC50 value) came out at 190 nM; in data set [5] (Test Example 5, Table 22, read-out: 12-Lipoxygenase inhibiting activity IC50 value), 11 nM.
As to `O=c1oc2c(O)c(O)ccc2cc1-c1ccc([N+](=O)[O-])cc1` [Example 23, 3-(4-nitrophenyl)-7,8-dihydroxycoumarin], the IC50 in data set [3] (setting [8]) stood at 530 nM; in data set [5] (setting [9]) it was 34 nM.
As for `O=c1oc2cc(O)c(O)cc2cc1-c1cc(Br)cs1` [Example 34, 3-(4-bromothiophen-2-yl)-6,7-dihydroxycoumarin], the concentration for half-maximal inhibition (IC50) in data set [3] (setting [8]) was 150 nM; in data set [5] (setting [9]), 5.2 nM; in data set [5] (setting [10]), 5.2 nM.
On to `Cc1ccc(-c2cc3cc(O)c(O)cc3oc2=O)cc1` [Example 11], for which the IC50 was found to be 180 nM in data set [3] (setting [8]) and 11 nM in data set [5] (setting [9]).
`Cc1c(-c2ccc(Cl)cc2)c(=O)oc2cc(O)c(O)cc12` [Example 5, 3-(4-chlorophenyl)-4-methyl-6,7-dihydroxycoumarin]: the IC50 in data set [3] (setting [8]) is 410 nM; in data set [5] (setting [7]), 9.2 nM; in data set [5] (setting [9]) it was 9.2 nM; in data set [5] (setting [10]), 9.2 nM.
As to `O=c1oc2cc(O)c(O)cc2cc1-c1ccccc1` [Example 6, 3-phenyl-6,7-dihydroxycoumarin], the IC50 in data set [3] (setting [8]) was 270 nM; in data set [5] (setting [9]) it was 16 nM.
